From paper PMC9501810, “Bitter Peptides YFYPEL, [sequence], and [sequence], Released during Gastric Digestion of Casein, Stimulate Mechanisms of Gastric Acid Secretion via Bitter Taste Receptors TAS2R16 and TAS2R38” (Journal of Agricultural and Food Chemistry, 2022)
Where “and” joins values, the source holds several entries; their conditions need not be identical. Identical values can stand only once.

Legend:
Format in all cases: cell-based, human
[1] = test system: TAS1R1; experiment: RT-qPCR gene expression of TAS1R1 in HGT-1 cells; settings: 15/30/60/120 min, VAPFPEVF 17.5 µM, YQEPVLGPVRGPFPIIV 0.4 µM, n = 3
Method: (§1) For mRNA expression analysis, 800,000 cells were seeded in a T25 cell culture flask (25 cm^2) 1 day before the experiment. After incubation with 17.5 μM […], 0.03 μM YFYPEL, or 0.4 μM […] for 15, 30, 60, and 120 min, RNA was isolated using the peqGOLD RNA Kit (VWR Peqlab, USA) following the manufacturer’s protocol. Determination of RNA concentration (A260/A280 between 2.03 and 2.09) was performed on a NanoDrop One^c (Thermo Fisher Scientific Inc., USA). RNA integrity number (RIN 9.9–10.0, version 2.6, assay class Eukaryote Total RNA Nano) was analyzed using a 2100 Bioanalyzer (Agilent Technologies, USA). Removal of gDNA and synthesis of cDNA were performed using the iScript gDNA Clear cDNA Synthesis Kit (BioRad, Feldkirchen, Germany) following the manufacturer’s protocol. Real-time-qPCR (RT-qPCR) was performed with 50 ng cDNA amplified with SsoAdvanced Universal SYBR Green Supermix (Bio-Rad Laboratories, Inc., USA). The sequences of the forward and reverse primers of the 25 TAS2Rs were taken from Liszt et al.([13]) (Supporting Information Table-SI 3). Verified primers for the TAS1Rs (TAS1R1: qHsaCID0013443; TAS1R2: qHsaCID0016106; TAS1R3: qHsaCED0002321) and for MAPK1 (qHsaCEP0050000) were obtained from Bio-Rad Laboratories. PPIA[37] and GAPDH[38] were used as reference genes. The effects of the peptides on gene expression were analyzed in comparison to untreated control cells.

[2] = test system: TAS2R1; experiment: RT-qPCR gene expression of TAS2R1 in HGT-1 cells; settings: VAPFPEVF 17.5 µM, YFYPEL 0.03 µM, YQEPVLGPVRGPFPIIV 0.4 µM, normalized to PPIA and GAPDH and untreated cells, mean, n = 3–5
Method: as §1

[3] = test system: TAS2R50; experiment: RT-qPCR gene expression of TAS2R50 in HGT-1 cells; settings: VAPFPEVF 17.5 µM, YFYPEL 0.03 µM, YQEPVLGPVRGPFPIIV 0.4 µM, normalized to PPIA and GAPDH and untreated cells, mean, n = 3–5
Method: as §1

[4] = test system: TAS2R41; experiment: RT-qPCR gene expression of TAS2R41 in HGT-1 cells; settings: VAPFPEVF 17.5 µM, YFYPEL 0.03 µM, YQEPVLGPVRGPFPIIV 0.4 µM, normalized to PPIA and GAPDH and untreated cells, mean, n = 3–5
Method: as §1

[5] = test system: TAS2R43; experiment: RT-qPCR gene expression of TAS2R43 in HGT-1 cells; settings: VAPFPEVF 17.5 µM, YFYPEL 0.03 µM, YQEPVLGPVRGPFPIIV 0.4 µM, normalized to PPIA and GAPDH and untreated cells, mean, n = 3–5
Method: as §1

[6] = test system: TAS2R4; experiment: RT-qPCR gene expression of TAS2R4 in HGT-1 cells; settings: VAPFPEVF 17.5 µM, YFYPEL 0.03 µM, YQEPVLGPVRGPFPIIV 0.4 µM, normalized to PPIA and GAPDH and untreated cells, mean, n = 3–5
Method: as §1

[7] = test system: TAS2R7; experiment: RT-qPCR gene expression of TAS2R7 in HGT-1 cells; settings: VAPFPEVF 17.5 µM, YFYPEL 0.03 µM, YQEPVLGPVRGPFPIIV 0.4 µM, normalized to PPIA and GAPDH and untreated cells, mean, n = 3–5
Method: as §1

[8] = test system: TAS2R8; experiment: RT-qPCR gene expression of TAS2R8 in HGT-1 cells; settings: VAPFPEVF 17.5 µM, YFYPEL 0.03 µM, YQEPVLGPVRGPFPIIV 0.4 µM, normalized to PPIA and GAPDH and untreated cells, mean, n = 3–5
Method: as §1

[9] = test system: TAS2R3; experiment: RT-qPCR gene expression of TAS2R3 in HGT-1 cells; settings: VAPFPEVF 17.5 µM, YFYPEL 0.03 µM, YQEPVLGPVRGPFPIIV 0.4 µM, normalized to PPIA and GAPDH and untreated cells, mean, n = 3–5
Method: as §1

[10] = test system: TAS2R38; experiment: Proton secretion assay in TAS2R38 knock-down vs mock-transfected HGT-1 cells; settings: TAS2R38kd vs mock-transfected HGT-1 cells, VAPFPEVF 17.5 µM, YFYPEL 0.03 µM, YQEPVLGPVRGPFPIIV 0.4 µM, 10 min, mean ± SEM
Method: The measurement of proton secretion from HGT-1 cells represents a well-established model for the identification of bitter compounds. By affecting extraoral bitter taste receptors with bitter compounds, a modulatory effect on proton secretion can be measured. For this purpose, cells were washed with KRHB and incubated with 3 μM of the intracellular pH indicator 1,5 carboxy-seminaphto-rhodafluor acetoxymethyl ester (SNARF-1-AM) under standard conditions. After 30 min, the cells were washed again with KRHB and then incubated with casein (0.01–10 μM equimolar related to the relevant forms αS1- and β-casein), hydrolysate (0.01–10 μM), or the peptides (0.01–200 μM). […] All substances were dissolved and diluted in KRHB. 1 mM histamine was used as a positive control. Measurements were performed using FlexStation 3 (Molecular Devices, USA). The excitation wavelength was 488 nm, and the emission wavelengths were 580 and 640 nm. For calibration (pH range 7.0–8.0), the intracellular and extracellular pH was adjusted with 2 μM nigericin in potassium buffer (20 mM NaCl, 110 mM KCl, 1 mM CaCl2, 1 mM MgSO4, 18 mM D-glucose, and 20 mM HEPES). The intracellular proton index (IPX) was calculated as the log2 value of the 580/640 ratio and compared with cells without treatment. Negative values represent increased secretion of protons and therefore stimulation of mechanisms regulating gastric acid secretion in HGT-1 cells. In contrast, positive values represent an inhibition of secretion compared to the untreated control.
Expression of TAS2R16 and TAS2R38 was reduced by treatment of HGT-1 cells with siRNA. 100,000 cells per well were seeded 1 day before the experiment into a 24-well plate. All reagents and siRNA were purchased from Thermo Fisher Scientific, USA (cytotoxicity was excluded by MTT). Transfection was performed with Lipofectamine RNAiMAX in Opti-Medium according to the manufacturer’s protocol. 1–50 nM of different siRNA sequences (HSS121396 and HSS181763 for TAS2R16 and HSS108754 and HSS108756 for TAS2R38) and three different incubation times (24, 48, and 72 h) were tested. Mock control experiments were performed analogously with 1 or 10 nM Stealth RNAi siRNA negative control. To verify the functionality of the transfection process, verified 10 nM siRNA targeting MAPK1 (VHS40312) was used (positive control). The transfection rate was checked by qPCR as described in section 2.11. For the proton secretion assays, 20,000 cells per well were seeded 1 day before transfection into a black 96-well plate. After 72 h of transfection, proton secretion activities of TAS2R16 knock-down or TAS2R38 knock-down HGT-1 were compared with the mock transfected cells by means of ΔIPX.

YQEPVLGPVRGPFPIIV [bitter casein peptide βA1/A2-CN193–209]
change in expression of TAS1R1 [1]: no significant effect | change in gene expression of TAS2R1 ([2]; incubation 15 min): 0.33 fold change | change in gene expression of TAS2R1 ([2]; incubation 30 min): 0.43 fold change | change in gene expression of TAS2R1 ([2]; incubation 60 min): 1.00 fold change | change in gene expression of TAS2R1 ([2]; incubation 120 min): 0.84 fold change | change in gene expression of TAS2R50 ([3]; incubation 15 min): 0.67 fold change | change in gene expression of TAS2R50 ([3]; incubation 30 min): 1.66 fold change | change in gene expression of TAS2R50 ([3]; incubation 60 min): 1.21 fold change | change in gene expression of TAS2R50 ([3]; incubation 120 min): 1.07 fold change | change in gene expression of TAS2R41 ([4]; incubation 15 min): 1.31 fold change | change in gene expression of TAS2R41 ([4]; incubation 30 min): 1.71 fold change | change in gene expression of TAS2R41 ([4]; incubation 60 min): 2.95 fold change | change in gene expression of TAS2R41 ([4]; incubation 120 min): 4.61 fold change and 4.61 ± 2.03 fold change | change in gene expression of TAS2R43 ([5]; incubation 15 min): 0.69 fold change | change in gene expression of TAS2R43 ([5]; incubation 30 min): 1.44 fold change | change in gene expression of TAS2R43 ([5]; incubation 60 min): 1.15 fold change | change in gene expression of TAS2R43 ([5]; incubation 120 min): 0.88 fold change | change in gene expression of TAS2R4 ([6]; incubation 15 min): 0.79 fold change | change in gene expression of TAS2R4 ([6]; incubation 30 min): 1.71 fold change | change in gene expression of TAS2R4 ([6]; incubation 60 min): 1.60 fold change | change in gene expression of TAS2R4 ([6]; incubation 120 min): 1.21 fold change | change in gene expression of TAS2R7 ([7]; incubation 15 min): 0.49 fold change | change in gene expression of TAS2R7 ([7]; incubation 30 min): 0.74 fold change | change in gene expression of TAS2R7 ([7]; incubation 60 min): 0.70 fold change | change in gene expression of TAS2R7 ([7]; incubation 120 min): 1.82 fold change | change in gene expression of TAS2R8 ([8]; incubation 15 min): 1.39 fold change | change in gene expression of TAS2R8 ([8]; incubation 30 min): 2.45 fold change | change in gene expression of TAS2R8 ([8]; incubation 60 min): 1.87 fold change | change in gene expression of TAS2R8 ([8]; incubation 120 min): 1.93 fold change | change in gene expression of TAS2R3 ([9]; incubation 15 min): 1.03 fold change | change in gene expression of TAS2R3 ([9]; incubation 30 min): 1.89 fold change | change in gene expression of TAS2R3 ([9]; incubation 60 min): 1.61 fold change | change in gene expression of TAS2R3 ([9]; incubation 120 min): 1.40 fold change | reduction of the peptide-induced stimulation of proton secretion in TAS2R38kd cells ([10]; 72 h after 1 nM siRNA): 45.2 ± 6.7% | change of peptide-induced proton secretion, TAS2R38kd (in Figure 5E–G) ([10]; negative = reduction): -45.2 ±6.7%
